One assay addresses T1, Cathepsin K (Homo sapiens, UniProt P43235).
T1 sequence (P43235 115-329): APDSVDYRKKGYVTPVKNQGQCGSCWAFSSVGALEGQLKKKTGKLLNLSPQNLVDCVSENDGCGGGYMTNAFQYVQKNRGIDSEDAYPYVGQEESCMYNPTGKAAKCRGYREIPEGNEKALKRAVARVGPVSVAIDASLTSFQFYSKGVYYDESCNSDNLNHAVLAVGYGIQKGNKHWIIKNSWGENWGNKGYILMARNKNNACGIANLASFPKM
The experiment in a line: Cathepsin K inhibition assay (fluorogenic peptide substrate); selectivity ratio vs cathepsin S. Type of assay: biochemical. The conditions noted are these: ratio of cathepsin K inhibition constant to cathepsin S inhibition constant; Table II. Put shortly: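 Inhibition constants for competitive inhibitors come from apparent values fitted to enzyme progress curves. Substrate, acetyl-Lys-His-Pro-Lys-aminocarbamoylcoumarin (40 μM final), starts the reaction; fluorescence rise read at 380 nm excitation, 450 nm emission. Selectivity ratio: other cathepsin constant over cathepsin S constant.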

In a further assay the target is Cathepsin S (Homo sapiens, UniProt P25774). Description: Cathepsin S inhibition assay (fluorogenic peptide substrate). Type of assay: biochemical. The settings on record: Table II, compounds of Formula I; read-out: Ki Cat. S. Put shortly:
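Ki values come from nonlinear fitting of inhibited hydrolysis rates, taking free and total inhibitor concentrations as equal. Rates measured as rising fluorescence at 380/450 nm after reaction start with 50 μM final acetyl-HPVK-aminocarbamoylcoumarin.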

pKi: −log10 of the molar value.

Chain of Cathepsin S (P25774 115-331, species assumed): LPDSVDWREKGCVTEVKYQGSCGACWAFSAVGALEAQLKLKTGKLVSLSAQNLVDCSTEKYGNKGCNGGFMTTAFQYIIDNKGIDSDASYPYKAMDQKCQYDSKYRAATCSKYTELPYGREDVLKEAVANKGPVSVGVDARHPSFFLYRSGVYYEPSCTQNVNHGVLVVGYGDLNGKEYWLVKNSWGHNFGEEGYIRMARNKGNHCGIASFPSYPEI

A word on the pKi: it is the Ki on a negative log10 scale, so that one unit is a factor of ten. In the case of `COc1ccc(NCCNC(=O)[C@H](CC2CCCCC2)NC(=O)[C@H](O)c2ccccc2)cc1` [Compound 160, 3-Cyclohexyl-2-(S)-(2-(R)-hydroxy-2-phenyl-acetylamino)-N-[2-(4-methoxy-phenylamino)-ethyl]-propionamide], on Cathepsin K, the “Selectivity for Cat. S over Cat. K” value is listed as “++ (++, >100)”. At Cathepsin S, the pKi is greater than 5.00.
Consider `O=C(Cc1ccc(Cl)cc1)N[C@@H](CC1CCCCC1)C(=O)NCCNc1ccc(F)cc1` [Compound 305, 2-(S)-[2-(4-Chloro-phenyl)-acetylamino]-3-cyclohexyl-N-[2-(4-fluoro-phenylamino)-ethyl]-propionamide], for which the “Selectivity for Cat. S over Cat. K” value on Cathepsin K is reported as “++ (++, >100)”. Moreover, the negative logarithm of the Ki (pKi) on Cathepsin S is greater than 7.00.
Regarding `COc1ccc(NCCNC(=O)[C@H](Cc2ccc(-c3cc(F)ccc3OC)cc2)NC(=O)c2cccc(C)c2)cc1` [Compound 283, (S)-N-{2-(5′-Fluoro-2′-methoxy-biphenyl-4-yl)-1-[2-(4-methoxy-phenylamino)-ethylcarbamoyl]-ethyl}-3-methyl-benzamide], at Cathepsin K, the “Selectivity for Cat. S over Cat. K” value is listed as “++ (++, >100)”. On Cathepsin S, the pKi was greater than 6.00.
As for `COc1ccc(NCCNC(=O)[C@H](Cc2ccc(C(C)(C)C)cc2)NC(=O)c2cccc(C)c2)cc1` [Compound 255, (S)-N-{2-(4-tert-Butyl-phenyl)-1-[2-(4-methoxy-phenylamino)-ethylcarbamoyl]-ethyl}-3-methyl-benzamide], the “Selectivity for Cat. S over Cat. K” value on Cathepsin K was “++ (++, >100)”. Besides, on Cathepsin S, the pKi was greater than 6.00.
As for `COc1ccc(NCCNC(=O)[C@H](Cc2ccc(-c3ccncc3)cc2)NC(=O)c2cccc(C)c2)cc1` [Compound 277, (S)-N-[1-[2-(4-Methoxy-phenylamino)-ethylcarbamoyl]-2-(4-pyridin-4-yl-phenyl)-ethyl]-3-methyl-benzamide], on Cathepsin K, the “Selectivity for Cat. S over Cat. K” value is “++ (++, >100)”. The pKi at Cathepsin S was greater than 7.00.
`COc1ccc(NCCNC(=O)[C@H](Cc2cccc3ccccc23)NC(=O)c2cccc(C)c2)cc1` [Compound 258, (S)-N-{1-[2-(4-Methoxy-phenylamino)-ethylcarbamoyl]-2-naphthalen-1-yl-ethyl}-3-methyl-benzamide]: the “Selectivity for Cat. S over Cat. K” value at Cathepsin K is on record as “+++ (+++, >1000)”. Also, the pKi on Cathepsin S is greater than 7.00.
In the case of `COc1ccc(NCCNC(=O)[C@H](Cc2ccccc2)NC(=O)Nc2ccccc2)cc1` [Compound 57, (S)-N-[2-(4-Methoxy-phenylamino)-ethyl]-3-phenyl-2-(3-phenyl-ureido)-propionamide], on Cathepsin K, the “Selectivity for Cat. S over Cat. K” value was “+ (+, >10)”. Besides, the pKi at Cathepsin S is greater than 6.00.
For `COc1ccc(NCCNC(=O)[C@H](Cc2ccccc2)NC(=O)NCc2cccc(F)c2)cc1` [Compound 96, (S)-2-[3-(3-Fluoro-benzyl)-ureido]-N-[2-(4-methoxy-phenylamino)-ethyl]-3-phenyl-propionamide], the “Selectivity for Cat. S over Cat. K” value at Cathepsin K is “+ (+, >10)”. In addition, the pKi on Cathepsin S was greater than 5.00.
Regarding `O=C(N[C@@H](CC1CCCCC1)C(=O)NCCNc1ccc(OC(F)(F)F)cc1)c1ccc(OCc2ccccc2)cc1` [Compound 232, (S)-4-Benzyloxy-N-{2-cyclohexyl-1-[2-(4-trifluoromethoxy-phenylamino)-ethylcarbamoyl]-ethyl}-benzamide], the “Selectivity for Cat. S over Cat. K” value on Cathepsin K is on record as “+ (+, >10)”. Also, the pKi at Cathepsin S was greater than 7.00.
In the case of `CS(=O)(=O)Nc1ccc(C(=O)N[C@@H](CC2CCCCC2)C(=O)NCCNc2ccc(F)cc2)cc1` [Compound 299, N-(S)-{2-cyclohexyl-1-[2-(4-fluoro-phenylamino)-ethylcarbamoyl]-ethyl}-4-methanesulfonylamino-benzamide], the “Selectivity for Cat. S over Cat. K” value at Cathepsin K is given as “+ (+, >10)”. On Cathepsin S, the pKi is greater than 7.00.
Consider `COc1ccc(NCCNC(=O)[C@H](Cc2ccc(-c3ccc(CO)cc3)cc2)NC(=O)c2cccc(C)c2)cc1` [Compound 282, (S)-N-{2-(4′-Hydroxymethyl-biphenyl-4-yl)-1-[2-(4-methoxy-phenylamino)-ethylcarbamoyl]-ethyl}-3-methyl-benzamide], for which, on Cathepsin K, the “Selectivity for Cat. S over Cat. K” value is on record as “++ (++, >100)”. The pKi at Cathepsin S was greater than 6.00.
`CC[C@H](C(=O)N[C@@H](CC1CCCCC1)C(=O)NCCNc1ccc(OC)cc1)c1ccccc1` [Compound 164, N-{2-Cyclohexyl-1-(S)-[2-(4-methoxy-phenylamino)-ethylcarbamoyl]-ethyl}-2-(S)-phenyl-butyramide]: at Cathepsin K, the “Selectivity for Cat. S over Cat. K” value is on record as “+++ (+++, >1000)”. Besides, the negative logarithm of the Ki (pKi) at Cathepsin S was greater than 7.00.
`COc1ccc(NCCNC(=O)[C@H](Cc2ccc(-c3ccsc3)cc2)NC(=O)c2cccc(C)c2)cc1` [Compound 275, (S)-N-[1-[2-(4-Methoxy-phenylamino)-ethylcarbamoyl]-2-(4-thiophen-3-yl-phenyl)-ethyl]-3-methyl-benzamide]: the “Selectivity for Cat. S over Cat. K” value at Cathepsin K is recorded as “+++ (+++, >1000)”. Moreover, at Cathepsin S, the pKi is greater than 7.00.
`COc1ccc(NCCNC(=O)[C@H](Cc2ccccc2)NC(=O)c2cccc3c2OCC3)cc1` [Compound 52, (S)-2,3-Dihydro-benzofuran-7-carboxylic acid {1-[2-(4-methoxy-phenylamino)-ethylcarbamoyl]-2-phenyl-ethyl}-amide]: the “Selectivity for Cat. S over Cat. K” value on Cathepsin K is “+ (+, >10)”. Further, the pKi on Cathepsin S is greater than 5.00.
Turning to `COc1ccc(NCCNC(=O)[C@H](CC2CCCCC2)NC(=O)c2cnn(-c3ccccc3)c2C(F)(F)F)cc1` [Compound 115, (S)-1-Phenyl-5-trifluoromethyl-1H-pyrazole-4-carboxylic acid {2-cyclohexyl-1-[2-(4-methoxy-phenylamino)-ethylcarbamoyl]-ethyl}-amide], the “Selectivity for Cat. S over Cat. K” value on Cathepsin K was “+++ (+++, >1000)”. Besides, at Cathepsin S, the pKi is greater than 7.00.
As for `COc1ccc(NCCNC(=O)[C@H](Cc2ccc(-c3ccc(O)cc3)cc2)NC(=O)c2cccc(C)c2)cc1` [Compound 289, (S)-N-{2-(4′-Hydroxy-biphenyl-4-yl)-1-[2-(4-methoxy-phenylamino)-ethylcarbamoyl]-ethyl}-3-methyl-benzamide], on Cathepsin K, the “Selectivity for Cat. S over Cat. K” value is “++ (++, >100)”. Moreover, the pKi on Cathepsin S is greater than 6.00.
With `COc1ccc(NCCNC(=O)[C@H](CC2CCCCC2)NC(=O)c2cc(Br)cc(Br)c2)cc1` [Compound 178, (S)-3,5-Dibromo-N-{2-cyclohexyl-1-[2-(4-methoxy-phenylamino)-ethylcarbamoyl]-ethyl}-benzamide], the “Selectivity for Cat. S over Cat. K” value on Cathepsin K was “+++ (+++, >1000)”. Also, the pKi on Cathepsin S was greater than 7.00.
As to `COc1ccc(NCCNC(=O)[C@H](Cc2ccccc2)NC(=O)c2cccc(-c3csc(C)n3)c2)cc1` [Compound 56, (S)-N-{1-[2-(4-Methoxy-phenylamino)-ethylcarbamoyl]-2-phenyl-ethyl}-3-(2-methyl-thiazol-4-yl)-benzamide], the “Selectivity for Cat. S over Cat. K” value at Cathepsin K was “++ (++, >100)”. Besides, the pKi at Cathepsin S is greater than 6.00.
`COc1ccc(NCCNC(=O)[C@H](Cc2ccccc2)NC(=O)c2cccc(Br)c2)cc1` [Compound 78, (S)-3-Bromo-N-{1-[2-(4-methoxy-phenylamino)-ethylcarbamoyl]-2-phenyl-ethyl}-benzamide]: the “Selectivity for Cat. S over Cat. K” value at Cathepsin K was “+ (+, >10)”. In addition, on Cathepsin S, the negative-log Ki (pKi) was greater than 7.00.
Turning to `COc1ccc(NCCNC(=O)[C@H](Cc2ccccc2)NC(=O)Nc2c(C)cccc2C(C)(C)C)cc1` [Compound 102, (S)-2-[3-(2-tert-Butyl-6-methyl-phenyl)-ureido]-N-[2-(4-methoxy-phenylamino)-ethyl]-3-phenyl-propionamide], the “Selectivity for Cat. S over Cat. K” value on Cathepsin K is reported as “++ (++, >100)”. Besides, the pKi at Cathepsin S was greater than 7.00.
With `O=C(N[C@@H](CC1CCCCC1)C(=O)NCCNc1ccc(OC(F)(F)F)cc1)c1onc2ccccc12` [Compound 59, Benzo[c]isoxazole-3-carboxylic acid (S)-{2-cyclohexyl-1-[2-(4-trifluoromethoxy-phenylamino)-ethylcarbamoyl]-ethyl}-amide], at Cathepsin K, the “Selectivity for Cat. S over Cat. K” value is listed as “++ (++, >100)”. The pKi on Cathepsin S is greater than 6.00.
With `COc1cc(OC)nc(Oc2cccc(C(=O)N[C@@H](CC3CCCCC3)C(=O)NCCNc3ccc(OC(F)(F)F)cc3)c2)n1` [Compound 73, N-(S)-{2-cyclohexyl-1-[2-(4-trifluoromethoxy-phenylamino)-ethylcarbamoyl]-ethyl}-3-(4,6-dimethoxy-pyrimidin-2-yloxy)-benzamide], the “Selectivity for Cat. S over Cat. K” value at Cathepsin K was “++ (++, >100)”. Also, the pKi at Cathepsin S was greater than 7.00.
`COc1ccc(NCCNC(=O)[C@H](Cc2ccc(-c3ccc(OC)nc3)cc2)NC(=O)c2cccc(C)c2)cc1` [Compound 292, (S)-N-{1-[2-(4-Methoxy-phenylamino)-ethylcarbamoyl]-2-[4-(6-methoxy-pyridin-3-yl)-phenyl]-ethyl}-3-methyl-benzamide]: the “Selectivity for Cat. S over Cat. K” value on Cathepsin K was “+++ (+++, >1000)”. For the same molecule, at Cathepsin S, the negative logarithm of the Ki (pKi) is greater than 7.00.
For `O=C(N[C@@H](CC1CCCCC1)C(=O)NCCNc1ccc(OC(F)(F)F)cc1)c1ccc(-c2ccc(OC(F)(F)F)cc2)s1` [Compound 207, (S)-5-(4-Trifluoromethoxy-phenyl)-thiophene-2-carboxylic acid {2-cyclohexyl-1-[2-(4-trifluoromethoxy-phenylamino)-ethylcarbamoyl]-ethyl}-amide], the “Selectivity for Cat. S over Cat. K” value on Cathepsin K is reported as “++ (++, >100)”. For the same molecule, the pKi at Cathepsin S was greater than 6.00.

For the origin of these results see patent US7109243B2 (IRM LLC, priority 2003, dated 2006).
